Reference: patent publication KR20130087877A, “피부미백, 항산화 및 ppar 활성을 갖는 신규 화합물 및 이의 의학적 용도” (부산대학교 산학협력단, priority 2012, dated 2013)

Key:
[1] = test system: mushroom-derived tyrosinase (버섯 유래 티로시나아제); test: Tyrosinase inhibition (dopachrome formation from L-tyrosine); assay type: biochemical; conditions: 1 mM L-tyrosine, pH 6.5, 25℃, 30 min, 492 nm; compared with positive control kojic acid; Figure 2
[2] = test system: ROS generated in vascular endothelial cells (혈관내피세포(YPEN-1)); test: In vitro ROS scavenging activity, DCFDA assay in YPEN-1 vascular endothelial cells; assay type: cell-based, rat; conditions: YPEN-1 cells, SIN-1 50 μM pretreatment 1 h, compared with positive control Trolox, Figure 1
PPARα = target: T1, PPARα (Homo sapiens, UniProt Q07869); test: PPAR analysis, PPARα (Fluormone Pan-PPAR Green competition, competitive activation rate); conditions: final sample concentration 100 μM; compared with positive control fenofibrate; Figure 3
T1 sequence (Q07869 239-466 limits assumed): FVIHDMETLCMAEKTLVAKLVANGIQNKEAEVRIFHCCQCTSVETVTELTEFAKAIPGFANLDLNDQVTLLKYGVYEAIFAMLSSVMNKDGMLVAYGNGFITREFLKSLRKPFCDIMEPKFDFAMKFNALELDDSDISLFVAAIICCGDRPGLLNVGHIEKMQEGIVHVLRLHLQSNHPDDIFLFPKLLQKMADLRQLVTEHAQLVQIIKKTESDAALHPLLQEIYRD

PPARγ = target: T2, PPARγ (Homo sapiens, UniProt P37231); test: PPAR analysis, PPARγ (Fluormone Pan-PPAR Green competition, competitive activation rate); assay type: binding; conditions: final sample concentration 100 μM; compared with positive control rosiglitazone; Figure 4
T2 sequence (P37231 238-503 limits assumed): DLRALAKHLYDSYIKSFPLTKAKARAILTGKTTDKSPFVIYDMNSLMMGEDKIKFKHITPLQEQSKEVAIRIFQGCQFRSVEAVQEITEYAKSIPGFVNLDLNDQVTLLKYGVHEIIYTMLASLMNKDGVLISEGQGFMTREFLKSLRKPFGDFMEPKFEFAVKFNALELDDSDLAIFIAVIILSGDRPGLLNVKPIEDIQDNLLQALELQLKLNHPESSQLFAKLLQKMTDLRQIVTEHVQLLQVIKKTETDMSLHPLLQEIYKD

[3] = test system: PPARα and PPARγ (PPARα 및 PPARγ); test: PPAR analysis, PPARα and PPARγ taken together; assay type: binding; conditions: final sample concentration 100 μM

NC(=O)N/N=C/c1ccc(O)cc1 [화합물 1, (E)-2-(4-Hydroxybenzylidene)hydrazinecarboxamide]
tyrosinase inhibitory activity [1]: 양성대조군인 코지산(Kojic Acid)과 유사한 티로시네이즈 억제 활성

NC(=O)N/N=C/c1ccc(O)c(O)c1 [화합물 2, (E)-2-(3,4-Dihydroxybenzylidene)hydrazinecarboxamide]
ROS scavenging effect [2]: 양성대조군인 트롤록스(Trolox)만큼 소거하는 효과가 큰

NC(=O)N/N=C/c1ccccc1O [화합물 10, (E)-2-(2-Hydroxybenzylidene)hydrazinecarboxamide]
PPARα activation (competitive activation rate), in words (PPARα): 양성대조군인 페노피브레이트보다 매우 뛰어난 PPARα 활성화제

CC(=O)N/C(=C\c1ccc(O)c(O)c1)C(=O)O [화합물 14, (Z)-2-Acetamido-3-(3,4-dihydroxyphenyl)acrylic acid]
ROS scavenging effect [2]: 양성대조군인 트롤록스(Trolox)만큼 소거하는 효과가 큰

CC(=O)N/C(=C\c1ccc(O)cc1O)C(=O)O [화합물 15, (Z)-2-Acetamido-3-(2,4-dihydroxyphenyl)acrylic acid]
PPARα activation (competitive activation rate), in words (PPARα): 양성대조군인 페노피브레이트보다 매우 뛰어난 PPARα 활성화제
PPARγ activation (competitive activation rate), in words (PPARγ): 양성대조군인 로지글리타존보다 뛰어난 PPARγ 활성화제
simultaneous activation of PPARα and PPARγ [3]: PPARα 및 PPARγ를 동시에 활성화할 수 있는 활성화제

COc1cc(/C=C(\NC(C)=O)C(=O)O)ccc1O [화합물 16, (Z)-2-Acetamido-3-(4-hydroxy-3-methoxyphenyl)acrylic acid]
ROS scavenging effect [2]: 양성대조군인 트롤록스(Trolox)만큼 소거하는 효과가 큰

CCOc1cc(/C=C(\NC(C)=O)C(=O)O)ccc1O [화합물 17, (Z)-2-Acetamido-3-(3-ethoxy-4-hydroxyphenyl)acrylic acid]
ROS scavenging effect [2]: 양성대조군인 트롤록스(Trolox)만큼 소거하는 효과가 큰

CC(=O)N/C(=C\c1ccccc1O)C(=O)O [화합물 23, (Z)-2-Acetamido-3-(2-hydroxyphenyl)acrylic acid]
PPARα activation (competitive activation rate), in words (PPARα): 양성대조군인 페노피브레이트보다 매우 뛰어난 PPARα 활성화제
PPARγ activation (competitive activation rate), in words (PPARγ): 양성대조군인 로지글리타존보다 뛰어난 PPARγ 활성화제
simultaneous activation of PPARα and PPARγ [3]: PPARα 및 PPARγ를 동시에 활성화할 수 있는 활성화제

COc1cc(/C=C(\NC(C)=O)C(=O)O)cc(OC)c1O [화합물 25, (Z)-2-Acetamido-3-(4-hydroxy-3,5-dimethoxyphenyl)acrylic acid]
ROS scavenging effect [2]: 양성대조군인 트롤록스(Trolox)만큼 소거하는 효과가 큰
